{
  "source": "patent US6924311B2",
  "about": "“Methods for affecting various diseases utilizing LXR compounds” (X-Ceptor Therapeutics, Inc., priority 2001, dated 2005)",
  "origin": "cited, not measured here",
  "conditions": "db/db mice, known anti-diabetic RXR agonist, positive control; cited from earlier work",
  "data": [
    {"smiles": "CC1(C)CCC(C)(C)c2cc(C3(c4ccc(C(=O)O)cn4)CC3)c(F)cc21", "note": "[Compound 2, 6-[1-(3-Fluoro-5,5,8,8-tetramethyl-5,6,7,8-tetrahydro-napthalen-2-yl)-cyclopropyl]-nicotinic acid]", "values": [
      {"measurement": "effect on blood glucose levels", "result": "effectively lower blood glucose levels in db/db mice"}
    ]}
  ]
}
